Test results published in ChEMBL document CHEMBL1201862, “PubChem BioAssay data set” (2004).
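Assay format: 96-well plates, 48-hour exposure. The concentration for 50% growth inhibition is given as GI50.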 The source made the active and inactive calls. No stated cut-off is given here; in the data, active = GI50 up to about 1.1 µM and inactive = higher.

How the values were obtained:
Assay in all cases: growth of human tumour cells (NCI), 48 h
[1] = system: A549
[2] = system: ACHN
[3] = system: HOP-92
[4] = system: IGROV-1
[5] = system: KM12
[6] = system: M14
[7] = system: MOLT-4
[8] = system: NCI-H460
[9] = system: OVCAR-4
[10] = system: OVCAR-8
[11] = system: SF-295
[12] = system: SK-MEL-5
[13] = system: SN12C
[14] = system: UO-31
[15] = system: LOX IMVI
[16] = system: HCT-15

Measured: GI50

NC(=O)c1c[se]c(C2OC(COP(=O)(O)CP(=O)(O)OCC3OC(n4cnc5c(N)ncnc54)C(O)C3O)C(O)C2O)n1 (stereo not drawn)
inactive: [1] 51.3 µM | [2] 64.3 µM | [3] > 100 µM | [4] 84.3 µM | [5] 66.5 µM | [6] 72.8 µM | [7] 35.3 µM | [8] 44.8 µM | [9] > 100 µM | [10] 87.9 µM | [11] 53.3 µM | [12] > 100 µM | [13] > 100 µM | [14] > 100 µM

CC1=C(C(=O)Nc2cc(F)c(F)cc2F)C(c2cccc([N+](=O)[O-])c2)C(C(=O)Nc2ccccc2C(F)(F)F)=C(C)N1 (stereo not drawn)
inactive: [1] 26.8 µM | [2] 21.1 µM | [3] 10.9 µM | [4] 23.5 µM | [5] 21.3 µM | [15] 17.9 µM | [6] 22.8 µM | [7] 12.5 µM | [8] 18.5 µM | [9] 18.1 µM | [10] 27 µM | [11] 23.4 µM | [12] 22.1 µM | [13] 19.8 µM | [14] 12.3 µM

COc1cc2c(cc1O)C=NCC2
> 100 µM: [16]
inactive: [1] > 100 µM | [2] > 100 µM | [3] > 100 µM | [4] > 100 µM | [5] > 100 µM | [6] > 100 µM | [7] 60.5 µM | [8] > 100 µM | [9] > 100 µM | [10] > 100 µM | [11] > 100 µM | [12] 63.5 µM | [13] > 100 µM | [14] > 100 µM

CN(C)/C(N)=N\C#N
inactive: [1] > 100 µM | [2] > 100 µM | [3] > 100 µM | [4] > 100 µM | [5] > 100 µM | [6] > 100 µM | [7] > 100 µM | [8] > 100 µM | [9] > 100 µM | [10] > 100 µM | [11] > 100 µM | [12] > 100 µM | [13] > 100 µM | [14] > 100 µM
18.9 µM: [16]

CCSC(SCC)=C1C(=O)N(c2ccccc2)N=C1C
12.3 µM: [16]
inactive: [1] 18.1 µM | [2] 15.7 µM | [3] 6.38 µM | [4] 17.4 µM | [5] 19.3 µM | [15] 12.4 µM | [6] 13.6 µM | [7] 6.98 µM | [8] 16 µM | [10] 11.6 µM | [11] 23.7 µM | [12] 18.3 µM | [13] 16.1 µM | [14] 15.6 µM

N#C/C(=C(/S)Nc1ccccc1)c1nc2ccccc2[nH]1
> 10 µM: [16]
active: [4] 1 µM
inactive: [1] > 10 µM | [2] > 10 µM | [3] > 10 µM | [5] > 10 µM | [15] > 10 µM | [6] > 10 µM | [7] > 10 µM | [8] > 10 µM | [9] > 10 µM | [10] > 10 µM | [12] > 10 µM | [13] > 10 µM | [14] > 10 µM

Cc1cc(C=O)c2c(=O)c3c(O)ccc(/C=C/C(C)C)c3oc2c1
inactive: [1] > 100 µM | [2] 46.3 µM | [3] 68.9 µM | [4] 52.4 µM | [5] 86.9 µM | [6] 42.1 µM | [7] 28.9 µM | [8] > 100 µM | [9] 31.4 µM | [10] 65.2 µM | [11] > 100 µM | [12] 65.5 µM | [14] > 100 µM
30.5 µM: [16]

CC(=O)c1ccc2c(ccc(=O)n2C)c1
> 100 µM: [16]
inactive: [1] > 100 µM | [3] > 100 µM | [4] > 100 µM | [5] > 100 µM | [15] > 100 µM | [6] > 100 µM | [7] > 100 µM | [8] > 100 µM | [9] > 100 µM | [10] > 100 µM | [11] > 100 µM | [12] > 100 µM | [13] > 100 µM

CC(C)C(=O)/C=C/c1ccc(Cl)cc1
inactive: [1] 21.7 µM | [2] 11.2 µM | [3] 16.7 µM | [4] 21.6 µM | [5] 11.5 µM | [15] 8.83 µM | [6] 17.1 µM | [7] 12.2 µM | [8] 15.7 µM | [9] 12.9 µM | [11] 13.5 µM | [12] 8.57 µM | [13] 7.73 µM | [14] 12.2 µM

O=[N+]([O-])c1ccc(C[P+]2(c3ccccc3)CCCCC2)cc1.[O-][Cl+3]([O-])([O-])[O-]
inactive: [1] > 100 µM | [2] > 100 µM | [4] > 100 µM | [5] > 100 µM | [15] > 100 µM | [6] > 100 µM | [7] > 100 µM | [8] > 100 µM | [10] > 100 µM | [11] > 100 µM | [12] > 100 µM | [13] > 100 µM | [14] > 100 µM
72.1 µM: [16]

Cc1ccc(NC(=O)CC/C(CC(=O)c2ccc(Cl)cc2)=N\NC(=O)C(=O)NN)cc1C
inactive: [1] > 100 µM | [2] > 100 µM | [4] > 100 µM | [5] > 100 µM | [15] > 100 µM | [6] > 100 µM | [7] > 100 µM | [8] > 100 µM | [9] > 100 µM | [10] > 100 µM | [11] > 100 µM | [12] > 100 µM | [13] > 100 µM | [14] > 100 µM
> 100 µM: [16]

COc1ccc(C(CCC(C)=O)C(=O)O)cc1OC (stereo not drawn)
> 100 µM: [16]
inactive: [1] > 100 µM | [2] > 100 µM | [3] > 100 µM | [4] > 100 µM | [5] > 100 µM | [15] > 100 µM | [8] > 100 µM | [9] > 100 µM | [10] > 100 µM | [11] > 100 µM | [12] > 100 µM | [13] > 100 µM

COc1cc(C2c3cc4c(cc3[C@@H](N(C)c3ccc(N(C)C)cc3)C3COC(=O)C23)OCO4)cc(OC)c1O (stereo partly drawn)
active: [2] 0.774 µM | [4] 0.536 µM | [5] 0.377 µM | [15] 0.437 µM | [6] 0.305 µM | [7] 0.434 µM | [8] 0.352 µM | [10] 0.365 µM | [11] 0.147 µM | [12] 0.383 µM | [13] 0.59 µM | [14] 0.964 µM
0.449 µM: [16]
inactive: [3] 1.99 µM | [9] 9.57 µM

Nc1cccc(S(=O)(=O)NCC(=O)O)c1
inactive: [1] > 100 µM | [2] > 100 µM | [4] > 100 µM | [5] > 100 µM | [15] > 100 µM | [6] > 100 µM | [7] > 100 µM | [8] > 100 µM | [9] > 100 µM | [10] > 100 µM | [11] > 100 µM | [12] > 100 µM | [13] > 100 µM | [14] 73.5 µM
> 100 µM: [16]
